The source of these data is publication PMC11182288, “Effects of Netarsudil-Family Rho Kinase Inhibitors on Human Trabecular Meshwork Cell Contractility and Actin Remodeling Using a Bioengineered ECM Hydrogel” (Frontiers in Ophthalmology, 2022).

In general, EC50 refers to the concentration at which the effect is half-maximal. A word on the Ki: it is the dissociation constant of the complex between target and ligand, obtained from inhibition or displacement. Broadly, the IC50 is the midpoint of a concentration-inhibition curve.

Entries after “also recorded” stand apart in the source; their conditions may differ. Where two headings read alike, the source gives them in different places.

The subject of data set [1] is normotensive Dutch Belted rabbits. Further details: method as in unpublished data. To be noted: ref unpublished data; cited from earlier work.
The subject of data set [2] is F-actin stress fibers in hydrogel-encapsulated HTM cells. Nature of the data set: HTM hydrogel immunocytochemistry, F-actin stress fibers. It counts as cell-based, human. To be noted: for Effect on TGFβ2-induced F-actin stress fibers vs. TGFβ2 group: HTM05, HTM07, HTM36. The method, then:
(§1) Alternatively, 30 µl droplets of the HTM cell-laden hydrogel precursor solution were pipetted onto Surfasil-coated (Fisher Scientific) 18 × 18-mm square glass coverslips followed by placing a regular 12-mm round glass coverslip onto the hydrogels to facilitate even spreading of the polymer solution. HTM hydrogels were crosslinked by exposure to UV light (OmniCure S1500 UV Spot Curing System; Excelitas Technologies, Mississauga, Ontario, Canada) at 320-500 nm, 2.2 W/cm^2 for 5 s. The HTM hydrogel-adhered coverslips were removed with fine-tipped tweezers and placed hydrogel-side facing up in PDMS-coated 24-well culture plates ( Supplementary Figure 2C ).
Nuclei were counterstained with 4′,6′-diamidino-2-phenylindole (DAPI; Abcam). Coverslips were mounted with ProLong™ Gold Antifade (Invitrogen) on Superfrost™ microscope slides (Fisher Scientific), and fluorescent images were acquired with a Zeiss LSM 780 confocal microscope (Zeiss, Germany). […] Individual z-stacks consisted of 7 slices with the z-step interval set to […]. Fluorescence signal intensity of F-actin and αSMA were determined using Z-project maximum intensity projections in Fiji (NIH) with image background subtraction.

Data set [3] has as its system HTM cell-encapsulated ECM hydrogels. Nature of the data set: HTM hydrogel contraction analysis after TGFβ2 induction and ROCKi rescue. It counts as cell-based, human. Particulars: for HTM hydrogel contraction reversal compared with 10 µM Y27632 / Concentrations giving significantly decreased HTM hydrogel contraction compared to the TGFβ2 group / EC50: HTM07; for Concentrations giving significantly decreased HTM hydrogel contraction compared to the TGFβ2 group: dose range 0.0001-1.0 µM, 5-10 d; for EC50 / Increase of HTM hydrogel contraction over controls: TGFβ2 2.5 ng/ml 0-5 d; for EC50: then ROCKi 0.0001-1.0 µM 5-10 d, read-out: EC50, reduction of TGFβ2-induced HTM hydrogel contraction. The method, then:
as §1, with “HTM cells (1.0 × 10^6 cells/ml) were thoroughly mixed with MA-COL (3.6 mg/ml), SH-HA (0.5 mg/ml, 0.025% (w/v) photoinitiator) and SH-ELP (2.5 mg/ml) on ice ( Supplementary Figure 2A ), followed by pipetting 10 μl droplets of the HTM cell-laden hydrogel precursor solution onto polydimethylsiloxane-coated (PDMS; Sylgard 184; Dow Corning) 24-well culture plates ( Supplementary Figure 2B ), according to our established protocols ([32]–[34]). Alternatively,” for “Alternatively,”
Longitudinal brightfield images of HTM hydrogels subjected to the different treatments were acquired at 0 d and 10 d with an Eclipse Ti microscope (Nikon Instruments, Melville, NY, USA). Construct area was measured using Fiji software (National Institutes of Health (NIH), Bethesda, MD, USA) and normalized to 0 d followed by normalization to controls.

A further data set deals with T1, ROCK1 (Homo sapiens, UniProt Q13464).
T1 construct: purchased Invitrogen; Thermo Fisher Scientific
Nature of the data set: ROCK1 protein kinase assay (Kinase-Glo Luminescent Kinase Assay). It counts as biochemical. The protocol: (§2) Dose response analyses were conducted to establish IC50 values, which were converted to Ki values using the Cheng-Prusoff Equation Ki = IC50/(1 + ([ATP]/Km ATP).
(In Kinase-Glo more light means more ATP remaining.)

Another data set relates to cellular esterases. To be noted: stated in discussion, no reference given; cited from earlier work.
The test system of data set [4] is transformed HTM cells (TM-1). As to the kind of experiment: Cell-based assay measuring disruption of focal adhesions (paxillin staining). Also on record: species or system human. Particulars: 6 h, TM-1 cells on fibronectin-coated glass, Mean ± SEM, N ≥ 3. The method, then:
Cell-based assays measuring disruption of focal adhesions were conducted using transformed HTM cells (TM-1; kind gift from Donna Peters; Department of Ophthalmology and Visual Sciences, University of Wisconsin), as previously described ([39]). […] TM-1 cells were stained with an anti-paxillin primary antibody followed by incubation with an Alexa Fluor-488 fluorescent secondary antibody and Hoechst 33342 counterstain (all from Invitrogen) to reveal focal adhesions and nuclei, respectively. Images were collected on an INCell 1000 imager (GE Healthcare, Marlborough, MA, USA), and total area of focal adhesions was measured using a custom algorithm developed using the INCell Developer Toolbox, v1.6. Dose response analyses were conducted to establish IC50 values.

Data set [5] concerns the target ROCK1/2. Nature of the data set: ROCK1/2 kinase assays, average of both isoforms. To be noted: average of ROCK1 and ROCK2 Ki. It counts as biochemical, human. The protocol:
as §2

For the next data set, the target named is T2, ROCK2 (Homo sapiens, UniProt O75116).
T2 construct: purchased Invitrogen; Thermo Fisher Scientific
As to the kind of experiment: ROCK2 protein kinase assay (Kinase-Glo Luminescent Kinase Assay). It counts as biochemical. The protocol: as §2

For data set [6] the following is noted: stated in discussion, no reference given; cited from earlier work.
In data set [7] the target is ROCK1/2. To be noted: same biochemical assay; ref [13]; read-out: Ki of Y27632; cited from earlier work.
Data set [8] concerns transformed HTM cells (TM-1). To be noted: same cell-based assay; ref [13]; read-out: IC50 of Y27632, HTM cell focal adhesion disruption; cited from earlier work.
[9] abbreviates: each compound at its respective EC50.
Where [10] appears, read: each compound at its respective EC50, HTM05, HTM07, HTM36.
Setting [11] is: each compound at its respective EC50, pooled HTM05, HTM07, HTM36, 10 d.
[12] abbreviates: each compound at its respective EC50, across HTM05, HTM07, HTM36, 10 d.
[13] abbreviates: TGFβ2 induction group, across three cell strains.

T1 sequence (Q13464 whole entry): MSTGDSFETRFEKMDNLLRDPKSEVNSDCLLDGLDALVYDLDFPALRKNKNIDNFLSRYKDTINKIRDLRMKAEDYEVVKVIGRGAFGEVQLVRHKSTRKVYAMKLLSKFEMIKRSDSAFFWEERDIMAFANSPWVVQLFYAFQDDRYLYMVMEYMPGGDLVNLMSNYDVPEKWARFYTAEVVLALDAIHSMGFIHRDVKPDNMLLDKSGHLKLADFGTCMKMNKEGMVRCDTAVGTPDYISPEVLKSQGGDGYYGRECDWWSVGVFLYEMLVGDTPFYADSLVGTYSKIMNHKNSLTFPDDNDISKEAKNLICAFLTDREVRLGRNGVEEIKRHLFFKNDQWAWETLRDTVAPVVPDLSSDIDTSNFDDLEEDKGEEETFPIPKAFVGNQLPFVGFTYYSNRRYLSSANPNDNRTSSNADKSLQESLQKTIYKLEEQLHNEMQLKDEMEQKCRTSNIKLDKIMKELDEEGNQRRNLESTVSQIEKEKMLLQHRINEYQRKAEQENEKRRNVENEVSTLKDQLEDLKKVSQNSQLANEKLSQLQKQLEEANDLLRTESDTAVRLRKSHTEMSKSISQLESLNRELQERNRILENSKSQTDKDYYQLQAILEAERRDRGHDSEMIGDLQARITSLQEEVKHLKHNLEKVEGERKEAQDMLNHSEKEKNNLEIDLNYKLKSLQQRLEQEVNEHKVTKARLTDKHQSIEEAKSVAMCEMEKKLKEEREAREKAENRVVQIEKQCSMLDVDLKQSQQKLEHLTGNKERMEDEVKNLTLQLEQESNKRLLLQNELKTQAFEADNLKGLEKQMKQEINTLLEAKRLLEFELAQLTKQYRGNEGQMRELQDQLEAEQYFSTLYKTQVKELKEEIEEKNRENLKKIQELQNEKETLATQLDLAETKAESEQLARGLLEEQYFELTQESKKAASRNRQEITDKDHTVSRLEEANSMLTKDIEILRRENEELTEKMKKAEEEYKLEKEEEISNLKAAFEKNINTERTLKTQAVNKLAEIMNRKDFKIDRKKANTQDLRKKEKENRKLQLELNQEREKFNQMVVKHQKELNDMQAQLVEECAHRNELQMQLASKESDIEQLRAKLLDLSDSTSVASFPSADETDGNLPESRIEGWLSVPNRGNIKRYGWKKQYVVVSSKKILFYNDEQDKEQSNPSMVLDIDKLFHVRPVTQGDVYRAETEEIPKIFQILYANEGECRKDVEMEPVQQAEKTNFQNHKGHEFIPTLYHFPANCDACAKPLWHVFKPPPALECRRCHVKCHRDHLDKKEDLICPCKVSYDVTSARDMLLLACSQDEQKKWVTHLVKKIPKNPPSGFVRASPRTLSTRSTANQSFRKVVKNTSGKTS
T2 sequence (O75116 whole entry): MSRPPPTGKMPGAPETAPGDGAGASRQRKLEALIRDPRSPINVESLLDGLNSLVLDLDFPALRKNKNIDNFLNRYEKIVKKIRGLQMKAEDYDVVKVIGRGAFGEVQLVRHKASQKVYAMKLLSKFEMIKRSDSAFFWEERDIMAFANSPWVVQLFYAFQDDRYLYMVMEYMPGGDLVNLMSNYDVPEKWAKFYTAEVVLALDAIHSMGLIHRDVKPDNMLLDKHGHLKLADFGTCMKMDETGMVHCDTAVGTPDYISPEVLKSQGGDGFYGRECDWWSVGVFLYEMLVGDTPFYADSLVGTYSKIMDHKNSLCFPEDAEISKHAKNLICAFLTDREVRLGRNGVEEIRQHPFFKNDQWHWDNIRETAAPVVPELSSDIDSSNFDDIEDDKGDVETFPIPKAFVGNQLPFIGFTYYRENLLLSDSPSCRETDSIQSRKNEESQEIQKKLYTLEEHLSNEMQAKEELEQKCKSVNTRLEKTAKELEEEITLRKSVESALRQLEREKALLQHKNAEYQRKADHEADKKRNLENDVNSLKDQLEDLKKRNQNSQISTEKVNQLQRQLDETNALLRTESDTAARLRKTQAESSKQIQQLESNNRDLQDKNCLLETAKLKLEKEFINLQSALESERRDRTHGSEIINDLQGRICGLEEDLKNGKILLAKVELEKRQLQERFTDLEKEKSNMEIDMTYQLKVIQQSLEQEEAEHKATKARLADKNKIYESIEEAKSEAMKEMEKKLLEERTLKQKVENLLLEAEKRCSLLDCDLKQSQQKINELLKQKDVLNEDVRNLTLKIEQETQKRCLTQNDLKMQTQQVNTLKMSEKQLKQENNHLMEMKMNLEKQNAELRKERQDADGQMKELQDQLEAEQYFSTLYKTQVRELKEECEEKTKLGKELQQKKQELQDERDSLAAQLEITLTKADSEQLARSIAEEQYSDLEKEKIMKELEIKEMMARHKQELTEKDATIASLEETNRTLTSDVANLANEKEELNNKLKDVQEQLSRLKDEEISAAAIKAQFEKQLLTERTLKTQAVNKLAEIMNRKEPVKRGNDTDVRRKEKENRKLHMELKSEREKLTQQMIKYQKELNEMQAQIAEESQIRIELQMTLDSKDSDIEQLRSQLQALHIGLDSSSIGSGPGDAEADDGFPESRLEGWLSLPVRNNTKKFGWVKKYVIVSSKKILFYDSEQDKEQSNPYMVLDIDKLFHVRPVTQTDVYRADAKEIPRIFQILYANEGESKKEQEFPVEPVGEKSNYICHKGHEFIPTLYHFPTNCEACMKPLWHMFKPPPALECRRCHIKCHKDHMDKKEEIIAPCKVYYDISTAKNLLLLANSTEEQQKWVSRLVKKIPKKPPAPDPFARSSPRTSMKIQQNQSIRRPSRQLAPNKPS

On to `NC[C@@H](C(=O)Nc1ccc2cnccc2c1)c1ccc(COC(=O)c2ccccc2)cc1` [Compound A], for which the Intraocular pressure lowering result in data set [1] was “did not perform as well; also recorded: unable to significantly lower intraocular pressure”. Also, the “Effect on TGFβ2-induced F-actin stress fibers vs. TGFβ2 group” value in data set [2] (setting [9]) was “not different from TGFβ2”. Also, the “HTM hydrogel contraction reversal compared with 10 µM Y27632” value in data set [3] (compound at 1.0 µM) is recorded as “not different”. Moreover, the “Concentrations giving significantly decreased HTM hydrogel contraction compared to the TGFβ2 group” value in data set [3] is recorded as at least 0.01 µM. In addition, the EC50 in data set [3] (Homo sapiens, HTM) was found to be 3.7 nM. Also, the “Effect on TGFβ2-induced HTM hydrogel contraction vs. TGFβ2 group” value in data set [3] (setting [10]) was “failed to reverse”. For the same molecule, the “Effect on TGFβ2-induced HTM hydrogel contraction, HTM36” value in data set [3] (uniform ROCKi concentration of 35.9 nM, HTM36) is given as “significantly decreased”. Moreover, the Ki was 1.5 ± 0.7 nM on ROCK1 and about 1.4 nM at ROCK1/2 [5]. Further, the “Metabolism by cellular esterases (ester hydrolysis)” value (“Metabolism by cellular esterases” for short) in the data set on cellular esterases is recorded as “more quickly metabolized than netarsudil”. Moreover, in data set [4] (Homo sapiens), the IC50 was about 15 nM.

`NC[C@@H](C(=O)Nc1ccc2cnccc2c1Cl)c1ccccc1` [Compound B]: the Intraocular pressure lowering result in data set [1] is recorded as “did not perform as well as netarsudil”. Further, the Ki on ROCK2 is 2 nM; at ROCK1 it was 1.7 nM; on ROCK1/2 [5], about 1.9 nM. Besides, the “Effect on TGFβ2-induced F-actin stress fibers vs. TGFβ2 group” value in [2] (setting [9]) was “significantly decreased”. Also, in data set [2] (setting [11]), the “Relative F-actin signal fold-change vs. controls” value was ~ 1.1 fold-change. For the same molecule, the “Concentrations giving significantly decreased HTM hydrogel contraction compared to the TGFβ2 group” value in [3] was at least 0.1 µM. In data set [3] (Homo sapiens, HTM), the EC50 was determined as 22.2 nM. Moreover, the “Effect on TGFβ2-induced HTM hydrogel contraction vs. TGFβ2 group” value in data set [3] (setting [10]) is “significantly decreased TGFβ2-induced HTM hydrogel contraction using HTM05 and HTM36 cells”. For the same molecule, the “Relative hydrogel size vs. controls” value in data set [3] (setting [12]) is recorded as ~ 105%. Moreover, the “Metabolism by cellular esterases” value in the data set on cellular esterases is reported as “cannot be metabolized by cellular esterases at all”.

`NC[C@@H](C(=O)Nc1ccc2cnccc2c1)c1ccc(Cl)cc1` [Compound C]: the Intraocular pressure lowering entry in [1] is on record as “did not perform as well; also recorded: unable to significantly lower intraocular pressure”. The Ki at ROCK2 is 1.2 ± 0.4 nM; at ROCK1, 1.8 ± 0.3 nM; at ROCK1/2 [5] it was about 1.5 nM. In addition, the “Effect on TGFβ2-induced F-actin stress fibers vs. TGFβ2 group” value in data set [2] (setting [9]) is “significantly different from TGFβ2”. In data set [2] (setting [11]), the “Relative F-actin signal fold-change vs. controls” value is on record as ~ 1.3 fold-change. Besides, the “HTM hydrogel contraction reversal compared with 10 µM Y27632” value in data set [3] (compound at 1.0 µM) was “comparable”. For the same molecule, the “Concentrations giving significantly decreased HTM hydrogel contraction compared to the TGFβ2 group” value in data set [3] is at least 0.01 µM. For the same molecule, the EC50 in data set [3] (Homo sapiens, HTM) came to 6.7 nM. Further, the “Effect on TGFβ2-induced HTM hydrogel contraction vs. TGFβ2 group” value in [3] (setting [10]) was “failed to rescue”. Also, in data set [3] (setting [12]), the “Relative hydrogel size vs. controls” value is ~ 87%. For the same molecule, the “Metabolism by cellular esterases” value in the data set with cellular esterases is given as “cannot be metabolized by cellular esterases at all”. In addition, the IC50 in data set [4] (Homo sapiens) is about 5.6 nM.

As for `NC[C@@H](C(=O)Nc1ccc2cnccc2c1)c1ccc(O)cc1` [Compound D], the Intraocular pressure lowering entry in [1] is on record as “did not perform as well as netarsudil”. For the same molecule, the Ki was 1.7 ± 0.7 nM on ROCK2, 4.5 ± 2 nM at ROCK1 and about 3.1 nM on ROCK1/2 [5]. The “Effect on TGFβ2-induced F-actin stress fibers vs. TGFβ2 group” value in [2] (setting [9]) is “significantly decreased TGFβ2-induced F-actin stress fibers across all three HTM cell strains”. Moreover, the “Relative F-actin signal fold-change vs. controls” value in data set [2] (setting [11]) is on record as ~ 0.8 fold-change. The “Concentrations giving significantly decreased HTM hydrogel contraction compared to the TGFβ2 group” value in data set [3] is recorded as at least 0.1 µM. Further, the concentration for a half-maximal effect (EC50) in data set [3] (Homo sapiens, HTM) came out at 123 nM. The “Effect on TGFβ2-induced HTM hydrogel contraction vs. TGFβ2 group” value in [3] (setting [10]) was “significantly decreased”. Also, the “Relative hydrogel size vs. controls” value in data set [3] (setting [12]) is reported as ~ 96%. In data set [4] (Homo sapiens), this molecule showed a concentration for half-maximal inhibition (IC50) of about 193 nM. For the same molecule, in data set [6], the “Ionization at physiological pH” value was “partially ionized at physiological pH”.

Take `C[C@@H](N)[C@H]1CC[C@H](C(=O)Nc2ccncc2)CC1` [Compound Y27632, Y27632]: the Ki at ROCK1/2 [7] is about 31.5 nM. Also, the IC50 in [8] is about 1740 nM.

Turning to `Cc1ccc(C(=O)OCc2ccc([C@@H](CN)C(=O)Nc3ccc4cnccc4c3)cc2)c(C)c1` [Netarsudil], the “Effect on TGFβ2-induced F-actin stress fibers vs. TGFβ2 group” value in data set [2] (setting [9]) is recorded as “significantly decreased”. Further, the “Effect on F-actin signal” value in data set [2] (max level netarsudil, 1.0 µM) was “nearly abolishing the F-actin signal”. Moreover, in data set [3], the “Effect on TGFβ2-induced HTM hydrogel contraction, overall across HTM07 and HTM36” value is “significantly decreased”. Besides, the EC50 in [3] was 35.9 nM. In addition, the “HTM hydrogel contraction reversal compared with 10 µM Y27632” value in [3] (compound at 0.1 µM) is given as “equivalent”; in [3] (compound at 1.0 µM), “significantly more potent”. In addition, the “Concentrations giving significantly decreased HTM hydrogel contraction compared to the TGFβ2 group” value in data set [3] is given as at least 0.01 µM. In addition, the “Difference in efficacy, netarsudil 1.0 µM vs. 35.9 nM” value in data set [3] (HTM hydrogel contraction, across three cell strains) is on record as ~ 1.2 fold. Besides, in data set [3] (setting [10]), the “Effect on TGFβ2-induced HTM hydrogel contraction vs. TGFβ2 group” value is reported as “significantly decreased”. Further, the half-maximal inhibitory concentration (IC50) is 17 ± 2 nM in [4] and about 17 nM in [4] (listed as netarsudil). The molecule also showed a Ki on ROCK1/2 [5] of about 2.7 nM.

B1: TGFβ2: transforming growth factor beta 2, used to induce a glaucoma-like cell phenotype (protein, UniProt P61812 303-414, looked up)
Transforming growth factor …: ALDAAYCFRNVQDNCCLRPLYIDFKRDLGWKWIHEPKGYNANFCAGACPYLWSSDTQHSRVLSLYNTINPEASASPCCVSQDLEPLTILYYIGKTPKIEQLSNMIVKSCKCS
Consider B1, for which the “Relative F-actin signal fold-change vs. controls” value in data set [2] (setting [13]) was ~ 1.9 fold-change. For the same molecule, the “Increase of HTM hydrogel contraction over controls” value was ~ 25% in data set [3] (HTM05, HTM07, HTM36); ~ 15% in data set [3] (HTM07 and HTM36, higher passage cells). Further, in data set [3] (setting [13]), the “Relative hydrogel size vs. controls” value is listed as ~ 75%.
